Reference: patent publication US7585859B2, “PDE4B inhibitors and uses therefor” (Plexxikon, Inc., priority 2004, dated 2009)
Like-named read-outs stand apart in the source and are kept apart here.

Columns and labels:
Type in all cases: biochemical
[1] = molecular target: T1, PDE4D (Homo sapiens, UniProt Q08499); test: PDE4 IC50 determination by Scintillation Proximity Assay, PDE4D
T1 construct: PDE4D: The catalytic domain of human PDE4B from S3 16-V692; His6 (N); thrombin cleavage site (N); made in house; host or cells: E. coli
How it was run: (§1)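 Hydrolysis of [^3H]cAMP measured by SPA with yttrium silicate beads, which bind the [^3H]AMP product strongly and cAMP weakly. Enzyme at 80 ng/ml for PDE4B, 4 ng/ml for PDE4D; 30 min at 30°.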

[2] = molecular target: T2, PDE4B: The catalytic domain of human PDE4B from S152-S528 (Homo sapiens, UniProt Q07343); test: PDE4 IC50 determination by Scintillation Proximity Assay, PDE4B
T2 construct: His6 (N); thrombin cleavage site (N); made in house; host or cells: E. coli
How it was run: as §1

[3] = molecular target: T3, full-length human PDE4B2 isozyme (Homo sapiens, UniProt Q07343); test: PDE4 IC50 determination by Scintillation Proximity Assay, PDE4B2
T3 construct: The full-length human PDE4B2 isozyme; His6 (N); TEV cleavage site (N); made in house; host or cells: baculovirus infected insect cells (unpurified lysate)
Protocol: (§2) IC50s were determined by Scintillation Proximity Assay (SPA). The principle of the assay is based on the fact that cAMP, the PDE4 substrate, binds weakly to Yittrium Silicate SPA beads, whereas AMP, the product of PDE4 hydrolysis binds strongly. Thus, the extent of PDE4 hydrolysis of a sample of [^3H]cAMP can be measured because only the
(§3) [^3H]AMP produced by PDE4 hydrolysis will bind to the SPA beads and produce a scintillation signal.
(§4) PDE4 enzymes used for IC50 assays were:
PDE4B2: The full-length human PDE4B2 isozyme with an N-terminal His6 tag (SEQ ID NO: 18) and TEV cleavage site expressed in baculovirus infected insect cells. The enzyme was not purified from the cell lysates, so enzyme concentrations were not determined. Enzyme was stored in 50% glycerol at −20°.
(§5) Compounds tested (see Tables 3B, 4B and 5A for compounds and results) were 3-fold serially diluted 11 times in DMSO from a starting concentration of 4 mM or 40 μM, depending on compound potency. 1 μl of each dilution was transferred into duplicate wells of a white polystyrene 384-well assay plate (Coming #3705). In addition to the compound dilutions, each assay plate contained control wells with 1 μl of DMSO (to define 0% enzyme inhibition) or 1 μl of 200 μM roflumilast (to define 100% enzyme inhibition). Using a Beckman FX robot, 10 μl of [^3H] cAMP (Amersham TRK559) at 2 mCi/ml in assay buffer (50 mM Tris, pH 7.5; 8.3 mM MgCl; 1.7 mM EGTA; 0.01% BSA) was transferred to each assay well. Next, 10 μl of PDE4 enzyme in assay buffer was added and the plates were shaken for 30 s. at 1000 rpm to start the cAMP hydrolysis reaction. The concentrations of enzyme used were: PDE4B, 80 ng/ml; PDE4D, 4 ng/ml; PDE4B2, 2.5 μl of 50% glycerol stock/ml; PDE4D5 0.083 μl of 50% glycerol stock/ml. Assay plates were covered and incubated for 30 min. at 30°. Reactions were stopped by robotic addition of 10 μl of 5 mg/ml SPA beads (Amersham RPNQ0013) in 18 mM ZnSO4. The assay plates were covered with clear plastic film, centrifuged for 1 min. at 1000 RPM to settle the SPA beads, and counted using a Wallac TriLux scintillation counter. IC50's were calculated from the raw assay data by non-linear regression curve fitting using the Assay Explorer software package from MDL.

[4] = molecular target: T4, full-length human PDE4D5 isozyme (Homo sapiens, UniProt Q08499); test: PDE4 IC50 determination by Scintillation Proximity Assay, PDE4D5; conditions: Table 1B, Formula I compounds; read-out: IC50 PDE4D5
T4 construct: The full-length human PDE4D5 isozyme; His6 (N); TEV cleavage site (N); made in house; host or cells: baculovirus infected insect cells (unpurified lysate)
Protocol: as §2, §3, §4
PDE4D5: The full-length human PDE4D5 isozyme with an N-terminal His6 tag (SEQ ID NO: 18) and TEV cleavage site expressed in baculovirus infected insect cells. The enzyme was not purified from the cell lysates, so enzyme concentrations were not determined. Enzyme was stored in 50% glycerol at −20°.
as §5

[5] = Table 1B, Formula I compounds, read-out: IC50 PDE4D
[6] = Table 1B, Formula I compounds, read-out: IC50 PDE4B
[7] = second part of Table 2B (2-23 to 2-103), column 5, column is PDE4D in first part, read-out: IC 50 vs. indicated assay h TNFα
[8] = second part of Table 2B (2-23 to 2-103), column 3, column is PDE4B in first part, read-out: IC 50 vs. indicated assay h TNFα
[9] = second part of Table 2B (2-23 to 2-103), column 4, column is PDE4B2 in first part, read-out: IC 50 vs. indicated assay h TNFα
[10] = Table 3A, Formula III compounds, read-out: IC50 PDE4D
[11] = Table 3A, Formula III compounds, read-out: IC50 PDE4B

T3 sequence (Q07343 1-564 isoform Q07343-2): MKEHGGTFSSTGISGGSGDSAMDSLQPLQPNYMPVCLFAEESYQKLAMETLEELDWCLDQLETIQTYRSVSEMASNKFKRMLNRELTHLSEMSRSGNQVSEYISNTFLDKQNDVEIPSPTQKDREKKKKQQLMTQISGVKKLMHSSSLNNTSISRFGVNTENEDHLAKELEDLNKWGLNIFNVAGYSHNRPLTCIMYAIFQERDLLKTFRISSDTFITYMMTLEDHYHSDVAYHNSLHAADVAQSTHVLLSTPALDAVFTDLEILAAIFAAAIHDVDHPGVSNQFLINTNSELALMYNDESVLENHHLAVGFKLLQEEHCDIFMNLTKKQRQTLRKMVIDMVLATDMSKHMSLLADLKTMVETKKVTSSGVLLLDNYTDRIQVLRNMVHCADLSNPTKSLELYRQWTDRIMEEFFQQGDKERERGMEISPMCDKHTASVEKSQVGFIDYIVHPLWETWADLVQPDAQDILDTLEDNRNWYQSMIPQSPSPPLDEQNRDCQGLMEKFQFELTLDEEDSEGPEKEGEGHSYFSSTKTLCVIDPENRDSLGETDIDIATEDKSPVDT
T4 sequence (Q08499 1-745 isoform Q08499-6): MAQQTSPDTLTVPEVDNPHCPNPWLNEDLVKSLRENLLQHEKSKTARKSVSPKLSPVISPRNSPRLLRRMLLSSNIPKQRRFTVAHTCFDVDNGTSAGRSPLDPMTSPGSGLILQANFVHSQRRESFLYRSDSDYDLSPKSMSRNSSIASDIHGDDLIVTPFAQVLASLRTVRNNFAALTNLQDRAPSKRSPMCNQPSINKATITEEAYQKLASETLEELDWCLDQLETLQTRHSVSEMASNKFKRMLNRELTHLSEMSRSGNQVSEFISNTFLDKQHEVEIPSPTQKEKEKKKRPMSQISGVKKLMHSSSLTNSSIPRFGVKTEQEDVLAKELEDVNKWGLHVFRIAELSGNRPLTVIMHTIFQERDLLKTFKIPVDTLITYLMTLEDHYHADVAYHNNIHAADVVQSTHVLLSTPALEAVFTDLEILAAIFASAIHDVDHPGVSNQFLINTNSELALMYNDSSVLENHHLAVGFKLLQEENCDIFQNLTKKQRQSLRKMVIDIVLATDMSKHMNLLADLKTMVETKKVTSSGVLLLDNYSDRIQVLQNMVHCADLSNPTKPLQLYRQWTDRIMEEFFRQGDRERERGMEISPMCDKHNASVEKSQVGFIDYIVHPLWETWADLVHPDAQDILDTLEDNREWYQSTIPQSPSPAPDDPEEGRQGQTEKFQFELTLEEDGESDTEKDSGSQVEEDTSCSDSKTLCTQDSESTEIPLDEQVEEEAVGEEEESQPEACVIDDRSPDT
T2 sequence (Q07343 with tags, fused parts or gaps): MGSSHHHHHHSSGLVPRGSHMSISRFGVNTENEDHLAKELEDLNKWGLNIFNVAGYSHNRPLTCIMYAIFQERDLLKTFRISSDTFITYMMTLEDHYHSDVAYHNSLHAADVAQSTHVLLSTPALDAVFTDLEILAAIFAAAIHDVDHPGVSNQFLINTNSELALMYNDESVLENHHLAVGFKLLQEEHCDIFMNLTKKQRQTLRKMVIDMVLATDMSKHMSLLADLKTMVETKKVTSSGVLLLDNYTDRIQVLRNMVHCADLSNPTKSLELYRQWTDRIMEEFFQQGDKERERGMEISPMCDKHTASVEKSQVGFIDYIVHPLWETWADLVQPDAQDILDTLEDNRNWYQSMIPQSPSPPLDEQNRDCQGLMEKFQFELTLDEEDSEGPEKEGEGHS
T1 sequence (Q08499 380-756): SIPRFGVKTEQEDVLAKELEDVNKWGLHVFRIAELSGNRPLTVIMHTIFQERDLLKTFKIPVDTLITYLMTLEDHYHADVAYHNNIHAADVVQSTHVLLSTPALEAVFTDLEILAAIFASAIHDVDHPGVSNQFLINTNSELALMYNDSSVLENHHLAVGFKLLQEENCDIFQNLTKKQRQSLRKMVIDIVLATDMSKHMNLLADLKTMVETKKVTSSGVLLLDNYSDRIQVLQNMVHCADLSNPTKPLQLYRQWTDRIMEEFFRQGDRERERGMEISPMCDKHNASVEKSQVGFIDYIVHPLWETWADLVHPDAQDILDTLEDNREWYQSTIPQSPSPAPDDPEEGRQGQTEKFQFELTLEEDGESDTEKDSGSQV

| Structure (SMILES) | IC50 [1, 10] | IC50 [2, 11] | also measured |
| --- | --- | --- | --- |
| N#Cc1c(Nc2ccc(C(=O)NC3CCOC3=O)cc2)sc(C(=O)c2cc(-c3ccccc3)no2)c1N (centres unmarked) [Compound 1-142, 4-[4-Amino-3-cyano-5-(3-phenyl-isoxazole-5-carbonyl)-thiophen-2-ylamino]-N-(2-oxo-tetrahydro-furan-3-yl)-benzamide] |  |  | IC50 [1, 5]: < 10 µM; IC50 [2, 6]: < 10 µM; IC50 ([3]; Table 1B, Formula I compounds, read-out: IC50 PDE4B2): < 10 µM |
| COc1ccc(Nc2sc(C(=O)c3cc(-c4ccc(Cl)cc4Cl)no3)c(N)c2C#N)cc1 [Compound 1-164, 4-Amino-5-[3-(2,4-dichloro-phenyl)-isoxazole-5-carbonyl]-2-(4-methoxy-phenylamino)-thiophene-3-carbonitrile] |  |  | IC50 [4]: > 10 µM; IC50 [1, 5]: < 10 µM; IC50 [2, 6]: < 10 µM |
| CC(C)NC(=O)c1cc(C(=O)c2sc(NC3CCCC3)c(C#N)c2N)on1 [Compound 1-189, 5-(3-Amino-4-cyano-5-cyclopentylamino-thiophene-2-carbonyl)-isoxazole-3-carboxylic acid isopropylamide] |  |  | IC50 [4]: < 10 µM; IC50 [1, 5]: < 10 µM; IC50 [2, 6]: < 10 µM |
| N#Cc1c(NC2CCCC2)sc(C(=O)c2cc(C(=O)NC3CC3)no2)c1N [Compound 1-190, 5-(3-Amino-4-cyano-5-cyclopentylamino-thiophene-2-carbonyl)-isoxazole-3-carboxylic acid cyclopropylamide] |  |  | IC50 [4]: < 10 µM; IC50 [1, 5]: < 10 µM; IC50 [2, 6]: < 10 µM |
| N#Cc1c(Nc2ccc(Oc3ccccc3)cc2)sc(C(=O)C2CCCC2)c1N [Compound 1-195, 4-Amino-5-cyclopentanecarbonyl-2-(4-phenoxy-phenylamino)-thiophene-3-carbonitrile] |  |  | IC50 [4]: < 10 µM; IC50 [2, 6]: < 10 µM |
| Nc1nc(Nc2c(Cl)cccc2Cl)sc1C(=O)c1ccccc1 [Compound 2-30, [4-Amino-2-(2,6-dichloro-phenylamino)-thiazol-5-yl]-phenyl-methanone] |  |  | IC50 [1, 7]: < 10 µM; IC50 [2, 8]: < 10 µM; IC50 [3, 9]: < 10 µM |
| Nc1nc(Nc2ccc(Oc3ccccc3)cc2)sc1C(=O)c1ccccc1 [Compound 2-67, [4-Amino-2-(4-phenoxy-phenylamino)-thiazol-5-yl]-phenyl-methanone] |  |  | IC50 [2, 8]: < 10 µM; IC50 [3, 9]: < 10 µM |
| Nc1nc(Nc2ccc(Cl)cc2)sc1C(=O)C1CCCC1 [Compound 2-92, [4-Amino-2-(4-chloro-phenylamino)-thiazol-5-yl]-cyclopentyl-methanone] |  |  | IC50 [1, 7]: < 10 µM; IC50 [2, 8]: < 10 µM; IC50 [3, 9]: < 10 µM |
| Cc1ccc2cccnc2c1NS(=O)(=O)c1cc(S(=O)(=O)c2ccccc2)cs1 [Compound 3-39, 4-Benzenesulfonyl-thiophene-2-sulfonic acid (7-methyl-quinolin-8-yl)-amide] | > 10 µM | > 10 µM |  |
| O=S(=O)(Nc1cccc2cccnc12)c1ccc(S(=O)(=O)c2ccccc2)s1 [Compound 3-40, 5-Benzenesulfonyl-thiophene-2-sulfonic acid quinolin-8-ylamide] | > 10 µM | > 10 µM |  |
| COc1cc(NS(=O)(=O)c2ccc(S(=O)(=O)c3ccccc3)s2)c2ncccc2c1 [Compound 3-41, 5-Benzenesulfonyl-thiophene-2-sulfonic acid (6-methoxy-quinolin-8-yl)-amide] | > 10 µM | < 10 µM |  |
| O=S(=O)(c1ccc(Br)s1)N(c1cccc2cccnc12)S(=O)(=O)c1ccc(Br)s1 [Compound 3-42] | > 10 µM | > 10 µM |  |
| COC(=O)c1ccc(S(=O)(=O)Nc2c(C)ccc3cccnc23)o1 [Compound 3-43, 5-(7-Methyl-quinolin-8-ylsulfamoyl)-furan-2-carboxylic acid methyl ester] | > 10 µM | > 10 µM |  |
| Cc1ccc(S(=O)(=O)Nc2cccc3cccnc23)cc1 [Compound 3-46, 4-Methyl-N-quinolin-8-yl-benzenesulfonamide] | > 10 µM | > 10 µM |  |
| COc1cc(NS(=O)(=O)c2ccc(C)cc2)c2ncccc2c1 [Compound 3-48, N-(6-Methoxy-quinolin-8-yl)-4-methyl-benzenesulfonamide] | > 10 µM | > 10 µM |  |
| COc1cc(NS(=O)(=O)c2cc(F)ccc2C)c2ncccc2c1 [Compound 3-49, 5-Fluoro-N-(6-methoxy-quinolin-8-yl)-2-methyl-benzenesulfonamide] | > 10 µM | > 10 µM |  |
| COc1ccc(OC)c(S(=O)(=O)Nc2cc(OC)cc3cccnc23)c1 [Compound 3-51, 2,5-Dimethoxy-N-(6-methoxy-quinolin-8-yl)-benzenesulfonamide] | > 10 µM | > 10 µM |  |
| COc1cc(NS(=O)(=O)Cc2ccccc2)c2ncccc2c1 [Compound 3-54, N-(6-Methoxy-quinolin-8-yl)-C-phenyl-methanesulfonamide] | > 10 µM | > 10 µM |  |
| COc1cc(NS(=O)(=O)c2ccc(F)cc2)c2ncccc2c1 [Compound 3-55, 4-Fluoro-N-(6-methoxy-quinolin-8-yl)-benzenesulfonamide] | > 10 µM | > 10 µM |  |
| COc1cc(NS(=O)(=O)c2ccccc2C)c2ncccc2c1 [Compound 3-57, N-(6-Methoxy-quinolin-8-yl)-2-methyl-benzenesulfonamide] | > 10 µM | > 10 µM |  |
| Cc1nccc(-c2cccc(S(=O)(=O)Nc3cccc4cccnc34)c2)n1 [Compound 3-66, 3-(2-Methyl-pyrimidin-4-yl)-N-quinolin-8-yl-benzenesulfonamide] | < 10 µM | < 10 µM |  |

Further lines, with some results ahead:

| IC50 [1, 10] | IC50 [2, 11] | Structure (SMILES) | also measured |
| --- | --- | --- | --- |
| > 10 µM | > 10 µM | COC(=O)c1ccc(S(=O)(=O)Nc2cccc3cccnc23)o1 [Compound 3-44, 5-(Quinolin-8-ylsulfamoyl)-furan-2-carboxylic acid methyl ester] |  |
| > 10 µM | > 10 µM | COC(=O)c1ccc(S(=O)(=O)Nc2cc(OC)cc3cccnc23)o1 [Compound 3-45, 5-(6-Methoxy-quinolin-8-ylsulfamoyl)-furan-2-carboxylic acid methyl ester] |  |
| > 10 µM | > 10 µM | Cc1ccc(S(=O)(=O)Nc2ccc(Br)c3cccnc23)cc1 [Compound 3-47, N-(5-Bromo-quinolin-8-yl)-4-methyl-benzenesulfonamide] |  |
| > 10 µM | > 10 µM | COc1cc(NS(=O)(=O)c2ccc(C#N)cc2)c2ncccc2c1 [Compound 3-52, 4-Cyano-N-(6-methoxy-quinolin-8-yl)-benzenesulfonamide] |  |
| > 10 µM | > 10 µM | COc1ccc(S(=O)(=O)Nc2cc(OC)cc3cccnc23)cc1 [Compound 3-53, 4-Methoxy-N-(6-methoxy-quinolin-8-yl)-benzenesulfonamide] |  |
| > 10 µM | > 10 µM | COc1cc(NS(=O)(=O)c2cccc(F)c2)c2ncccc2c1 [Compound 3-56, 3-Fluoro-N-(6-methoxy-quinolin-8-yl)-benzenesulfonamide] |  |
| > 10 µM | > 10 µM | COc1cc(NS(=O)(=O)c2cc(C)ccc2OC)c2ncccc2c1 [Compound 3-58, 2-Methoxy-N-(6-methoxy-quinolin-8-yl)-5-methyl-benzenesulfonamide] |  |
